From patent publication US11542297B2, “Compositions and methods for treating CNS disorders” (Sage Therapeutics, Inc., priority 2014, dated 2023)

System: PTZ-treated mice
Assay: Acute PTZ method (pentylenetetrazol-induced seizure assay)
Type: in vivo
Conditions: Mus musculus, lowest dose significantly affecting latency to tonic seizures in PTZ-treated mice, PO, read-out: Anticonvulsive Effect Dose
Protocol: The anticonvulsant effect of test compounds were assessed in a pentylenetetazol-induced seizure assay in mice similar to methods described in Giardina & Gasior (Curr Protoc Pharmacol. 2009). Male CD-1 mice were housed in groups of five under controlled conditions (temperature of 22±2° C. and 12:12 light-dark cycle, lights on at 8:00 am) and water and food were available ad libitum. The mice were housed for 1 week prior to behavioral testing, at which time they weighed 25-35 g. Pentylenetetrazol (PTZ, Sigma) was dissolved in sterile 0.9% saline at a concentration of 12 mg/mL concentration for subcutaneous administration. Test compounds were formulated and administered via oral gavage or intraperitoneal injection at a predetermined time-point (typically 30 or 60 minutes) prior to PTZ injection. […]
Mice were acclimated to the test room for at least 30 min before compound administration. […] Each mouse was continuously observed for 30 min and the following behaviors were recorded by observers blinded to the treatments: 1) latency to clonic convulsions that persist for 3 sec and followed by an absence of righting reflex 2) latency to tonic convulsions, characterized by the rigid extension of all four limbs that exceeded a 90 degree angle with the body 3) latency to death 4) number of clonic and tonic convulsions. […]

Structure (SMILES) | minimal effective dose
C[C@@]1(O)CC[C@@]2(C)[C@H](CC[C@@H]3[C@@H]2CC[C@]2(C)[C@@H](C(=O)Cn4ccc(C#N)n4)CC[C@@H]32)C1 [Compound 24] | 1 to 5 mg/kg
Cc1nnn(CC(=O)[C@H]2CC[C@H]3[C@@H]4CC[C@@H]5C[C@](C)(O)CC[C@]5(C)[C@H]4CC[C@]23C)n1 [Compound 32] | ≤ 1 mg/kg
